Patent US4540513A, “Decapeptide having gonadotropin releasing activity” (Kanegafuchi Kagaku Kogyo Kabushiki Kaisha, priority 1984, dated 1985)
Where a SMILES comes first, the peptide text is derived from it. [ ]: non-standard residue; d: D form. pGlu = O=C1CC[C@@H](C(=O)O)N1

Test system: rat prehypophysis (anterior pituitary) cells
Test: Gonadotropin (LH and FSH) releasing activity, monolayer culture of rat prehypophysis cells, radioimmunoassay of the supernatant
Assay type: cell-based
Procedure: The synthetic or natural decapeptides prepared in Example 1 was dissolved in 1N acetic acid so that the concentration was 1 μg/ml.
A series of half dilutions from 10.24 ng/ml to 10 pg/ml was prepared from the above solution.
Each sample solution in the series was dried in a rotary evaporator by evaporating 1N acetic acid.
The releasing activity was measured by monolayer culture method using rat prehypohysis cells. After rat prehypophysis cells were disperesed with tripsin and Viokase, the dispersed cells were washed well with a culture medium [Dulbecco's modified Eagle's medium (DMEM) containing 100 unit/ml gentamicin, 2.5 μ/ml fungizone, 5% horse serum, 5% human serum, and 2.5% fetal bovine serum]. The cells were inoculated at a density of 5×10^4 cells in each well of a plastic culture tray having 96 wells and precultured for 4 days.
Samples to be tested for gonadotropin releasing activity were added to the fifth-day culture and the culture was further incubated for 24 hours at 37° C. in the presence of 5% CO2.
On the fifth day of the culture the above dried peptide sampls were dissolved in 0.5 ml of the Dulbecco's modified Eagle's medium (DMEM), 0.2 ml of aligot was aded to each well, and the cells were cultured in the well for additional 24 hours.
After the culture, the supernatent of the culture was withdrawn and assayed for LH and FSH with the radio imunoassay kit provided by NIH.

[1] = 24 hours incubation, LH and FSH by radioimmunoassay

SMILES: NC(=O)CNC(=O)[C@@H]1CCCN1C(=O)[C@H](Cc1ccc(O)cc1)NC(=O)[C@H](Cc1c[nH]c2ccccc12)NC(=O)CNC(=O)[C@H](Cc1c[nH]cn1)NC(=O)[C@H](CO)NC(=O)[C@H](Cc1c[nH]c2ccccc12)NC(=O)[C@H](Cc1c[nH]cn1)NC(=O)[C@@H]1CCC(=O)N1 [decapeptide of the present invention, pGlu-His-Trp-Ser-His-Gly-Trp-Tyr-Pro-Gly-NH2] ([pGlu]HWSHGWYPG-NH2)
- lowest detectable amount [1]: 160 pg/mL
- specific activity at the half maximum dose [1]: 3.1 ng/mL
- LH and FSH releasing activity, specific activity relative to conventional LH-RH (% of the conventional LH-RH in specific activity): 30%
- gonadotropin-releasing potency relative to mammalian LHRH (bioassay with rat anterior pituitary cells, % of that of mammalian LHRH): about 32%
- gonadotropin-releasing potency relative to chicken LHRH (bioassay with rat anterior pituitary cells, times more potent than chicken LHRH): 8 times
- LH releasing activity at the maximum dose relative to control (maximum dose, bigger than that of the control): about 3.5 times
- LH releasing activity at the maximum dose (maximum dose, control 200 ng/ml LH): 3200 ng/ml LH
- activity of the purified relative to the starting material (purified from chicken hypothalamus extract, times more than the starting material): about 15×10^8 times
